Experimental data taken from article doi:10.1101/2023.05.15.540887, “Comparative analysis of drug-like EP300/CREBBP acetyltransferase inhibitors” (bioRxiv, 2023).
Where two headings read alike, the source gives them in different places.

Experiments:
PC-3 = assay: NCI-60 growth inhibition (sulforhodamine B); type: cell-based; conditions: Homo sapiens, PC-3, Prostate Cancer, negative log of Molar value, LCONC -8, EXPID 2301NS84
UO-31 = assay: NCI-60 growth inhibition (sulforhodamine B); type: cell-based; conditions: Homo sapiens, UO-31, Renal Cancer, negative log of Molar value, LCONC -8, EXPID 2301NS84
HS578T = assay: NCI-60 growth inhibition (sulforhodamine B); type: cell-based; conditions: Homo sapiens
BT-549 = assay: NCI-60 growth inhibition (sulforhodamine B); type: cell-based; conditions: Homo sapiens, BT-549, Breast Cancer, negative log of Molar value, LCONC -8, EXPID 2301NS84
NCI-H522 = assay: NCI-60 growth inhibition (sulforhodamine B); type: cell-based, human; conditions: NCI-H522 (Non-Small Cell Lung Cancer), negative log of Molar conc., LCONC -8
KM12 = assay: NCI-60 growth inhibition (sulforhodamine B); type: cell-based, human; conditions: KM12 (Colon Cancer), negative log of Molar conc., LCONC -8
T-47D = assay: NCI-60 growth inhibition (sulforhodamine B); type: cell-based; conditions: Homo sapiens, T47D
SF-295 = assay: NCI-60 growth inhibition (sulforhodamine B); type: cell-based, human; conditions: SF-295 (CNS Cancer), negative log of Molar conc., LCONC -8
HCT-15 = assay: NCI-60 growth inhibition (sulforhodamine B); type: cell-based, human; conditions: HCT-15 (Colon Cancer), negative log of Molar conc., LCONC -8
IGROV1 = assay: NCI-60 growth inhibition (sulforhodamine B); type: cell-based, human; conditions: IGROV1 (Ovarian Cancer), negative log of Molar conc., LCONC -8
OVCAR-5 = assay: NCI-60 growth inhibition (sulforhodamine B); type: cell-based, human; conditions: OVCAR-5 (Ovarian Cancer), negative log of Molar conc., LCONC -8
DU-145 = assay: NCI-60 growth inhibition (sulforhodamine B); type: cell-based; conditions: Homo sapiens, DU-145, Prostate Cancer, negative log of Molar value, LCONC -8, EXPID 2301NS84
U251 = assay: NCI-60 growth inhibition (sulforhodamine B); type: cell-based, human; conditions: U251 (CNS Cancer), negative log of Molar conc., LCONC -8
M14 = assay: cells; conditions: Homo sapiens
SNB-75 = assay: NCI-60 growth inhibition (sulforhodamine B); type: cell-based, human; conditions: SNB-75 (CNS Cancer), negative log of Molar conc., LCONC -8
MALME-3M = assay: NCI-60 growth inhibition (sulforhodamine B); type: cell-based, human; conditions: MALME-3M (Melanoma), negative log of Molar conc., LCONC -8
SW-620 = assay: NCI-60 growth inhibition (sulforhodamine B); type: cell-based, human; conditions: SW-620 (Colon Cancer), negative log of Molar conc., LCONC -8
NCI/ADR-RES = assay: NCI-60 growth inhibition (sulforhodamine B); type: cell-based; conditions: Homo sapiens, LCONC -8
OVCAR-8 = assay: NCI-60 growth inhibition (sulforhodamine B); type: cell-based, human; conditions: OVCAR-8 (Ovarian Cancer), negative log of Molar conc., LCONC -8
[1] = read-out: IC50 NLOGVALUE (converted)
[2] = Homo sapiens, read-out: GI50 NLOGVALUE (converted)
[3] = Homo sapiens, read-out: IC50 NLOGVALUE
[4] = Homo sapiens, read-out: IC50 NLOGVALUE (converted)
[5] = Homo sapiens, read-out: LC50 NLOGVALUE
[6] = Homo sapiens, read-out: GI50 NLOGVALUE

Question: Which results are given for C[C@H](CN[C@@H](C(=O)Nc1ccc(-c2cnn(C)c2)cn1)c1ccccc1)c1ccc(C#N)cc1 [CPI-1612]?
Answer: GI50 (PC-3; read-out: GI50 NLOGVALUE): < 0.01 µM; IC50 (PC-3; [1]): 0.447 µM; CC50 (PC-3; read-out: LC50 NLOGVALUE): > 100 µM; GI50 (UO-31; read-out: GI50 NLOGVALUE): < 0.01 µM; IC50 (UO-31; [1]): 0.0282 µM; CC50 (UO-31; read-out: LC50 NLOGVALUE): > 100 µM; GI50 (HS578T; Hs-578T, read-out: GI50 AVGDATA (converted)): 0.0138 µM; GI50 (HS578T; HS 578T, Breast Cancer, negative log of Molar value, LCONC -8, EXPID 2301NS84, read-out: GI50 NLOGVALUE (converted)): 0.0141 µM; IC50 (HS578T; HS 578T, Breast Cancer, negative log of Molar value, LCONC -8, EXPID 2301NS84, read-out: IC50 NLOGVALUE): > 100 µM; CC50 (HS578T; HS 578T, Breast Cancer, negative log of Molar value, LCONC -8, EXPID 2301NS84, read-out: LC50 NLOGVALUE): > 100 µM; GI50 (BT-549; read-out: GI50 NLOGVALUE): > 100 µM; IC50 (BT-549; read-out: IC50 NLOGVALUE): > 100 µM; CC50 (BT-549; read-out: LC50 NLOGVALUE): > 100 µM; GI50 (NCI-H522; [2]): 0.115 µM; IC50 (NCI-H522; [3]): > 100 µM; TGI NLOGVALUE (NCI-H522): 4; GI50 (KM12; [2]): 0.204 µM; IC50 (KM12; [4]): 3.24 µM; CC50 (KM12; [5]): > 100 µM; TGI NLOGVALUE (KM12): 4; GI50 (T-47D; T-47D, Breast Cancer, negative log of Molar value, LCONC -8, EXPID 2301NS84, read-out: GI50 NLOGVALUE (converted)): 0.0115 µM; IC50 (T-47D; T-47D, Breast Cancer, negative log of Molar value, LCONC -8, EXPID 2301NS84, read-out: IC50 NLOGVALUE (converted)): 42.7 µM; CC50 (T-47D; T-47D, Breast Cancer, negative log of Molar value, LCONC -8, EXPID 2301NS84, read-out: LC50 NLOGVALUE): > 100 µM; GI50 (T-47D; read-out: GI50 AVGDATA (converted)): 0.0117 µM; GI50 (SF-295; [6]): < 0.01 µM; IC50 (SF-295; [4]): 4.17 µM; CC50 (SF-295; [5]): > 100 µM; TGI NLOGVALUE (SF-295): 4; TGI NLOGVALUE (HCT-15): 4; GI50 (HCT-15; [2]): 0.0162 µM; IC50 (HCT-15; [4]): 0.0537 µM; CC50 (HCT-15; [5]): > 100 µM; GI50 (IGROV1; Homo sapiens, IGROV-1, read-out: GI50 NLOGVALUE (converted)): 0.0759 µM; IC50 (IGROV1; Homo sapiens, IGROV-1, read-out: IC50 NLOGVALUE (converted)): 57.5 µM; CC50 (IGROV1; Homo sapiens, IGROV-1, read-out: LC50 NLOGVALUE): > 100 µM; TGI NLOGVALUE (IGROV1): 4; GI50 (OVCAR-5; [6]): > 100 µM; IC50 (OVCAR-5; [3]): > 100 µM; CC50 (OVCAR-5; [5]): > 100 µM; TGI NLOGVALUE (OVCAR-5): 4; GI50 (DU-145; read-out: GI50 NLOGVALUE (converted)): 21.4 µM; IC50 (DU-145; read-out: IC50 NLOGVALUE): > 100 µM; CC50 (DU-145; read-out: LC50 NLOGVALUE): > 100 µM; GI50 (U251; Homo sapiens, U-251, read-out: GI50 NLOGVALUE (converted)): 2.34 µM; IC50 (U251; Homo sapiens, U-251, read-out: IC50 NLOGVALUE (converted)): 28.8 µM; CC50 (U251; Homo sapiens, U-251, read-out: LC50 NLOGVALUE): > 100 µM; TGI NLOGVALUE (U251): 4; GI50 (M14; M14, read-out: GI50 NLOGVALUE): 0.0214 µM; IC50 (M14; M14, read-out: IC50 NLOGVALUE): 44.7 µM; CC50 (M14; M14, read-out: LC50 NLOGVALUE): > 100 µM; GI50 (SNB-75; [6]): > 100 µM; IC50 (SNB-75; [3]): > 100 µM; CC50 (SNB-75; [5]): > 100 µM; TGI NLOGVALUE (SNB-75): 4; GI50 (MALME-3M; [6]): < 0.01 µM; IC50 (MALME-3M; [3]): > 100 µM; CC50 (MALME-3M; [5]): > 100 µM; TGI NLOGVALUE (MALME-3M): 4; GI50 (SW-620; [2]): 0.417 µM; IC50 (SW-620; [4]): 6.76 µM; CC50 (SW-620; [5]): > 100 µM; TGI NLOGVALUE (SW-620): 4; GI50 (NCI/ADR-RES; NCI/ADR-RES (Ovarian Cancer), negative log of Molar conc., read-out: GI50 NLOGVALUE (converted)): 6.46 µM; IC50 (NCI/ADR-RES; NCI/ADR-RES, Ovarian Cancer, negative log of Molar value, EXPID 2301NS84, read-out: IC50 NLOGVALUE (converted)): 29.5 µM; CC50 (NCI/ADR-RES; NCI/ADR-RES, Ovarian Cancer, negative log of Molar value, EXPID 2301NS84, read-out: LC50 NLOGVALUE): > 100 µM; GI50 (OVCAR-8; [2]): 40.7 µM; IC50 (OVCAR-8; [3]): > 100 µM; CC50 (OVCAR-8; [5]): > 100 µM; TGI NLOGVALUE (OVCAR-8): 4
